Reference: patent US20040023994A1 (priority 2002, published 2004)
Where two headings read alike, the source gives them in different places.

Key:
SF-539 = settings: SF-539, CNS, NCI database, cited from earlier work
HCT-116 = settings: HCT-116, Colon, NCI database, cited from earlier work
NCI-H460 = settings: NCI-H460, Non-Small Cell Lung, NCI database, cited from earlier work
UACC-62 [1] = settings: UACC-62, Melanoma, NCI database, cited from earlier work
UACC-257 [2] = settings: UACC-257, Melanoma, NCI database, cited from earlier work
SNB-19 = settings: SNB-19, CNS, NCI database, cited from earlier work
NCI-H522 = settings: NCI-H522, Non-Small Cell Lung, NCI database, cited from earlier work
U251 [3] = settings: U251, CNS, NCI database, cited from earlier work
M14 = settings: M14, Melanoma, NCI database, cited from earlier work
LOX IMVI = settings: Melanoma, NCI database, cited from earlier work
HT29 = settings: for CC50: read-out: LC50
UACC-257 [4] = settings: for CC50: read-out: LC50
UO-31 = settings: for CC50: read-out: LC50
UACC-62 [5] = settings: for CC50: read-out: LC50
MDA-MB-231/ATCC = settings: for CC50: read-out: LC50
MDA-N = format: cell-based; settings: Breast, 48 h
COLO 205 = settings: for CC50: read-out: LC50
SW-620 = settings: for CC50: read-out: LC50
[6] = tested on: Heterozygous nude CD-1 male mice; experiment: Intestinal pathological analysis (crypt epithelial cell apoptosis) in treated mice; settings: multiple doses
Procedure: Heterozygous nude CD-1 male mice were treated (i.p.) with multiple doses consisting of either one dose daily for three consecutive days (cis-AVTP or trans-AVTG, 21.25 μmol/kg, 6-TG, 8.5 or 21.25 μmol/kg, or vehicle; one cycle), or one dose daily for three consecutive days, repeated again five days later (cis-AVTP, trans-AVTG or 6-TG, 8.5 or 21.25 μmol/kg, or vehicle; two cycles).
The mice were sacrificed 24 h after the last treatment. Urine was collected for 24 h before initiation of treatment and every 24 h thereafter until the mice were sacrificed. Blood was collected by cardiac puncture and blood cells counted. Sections of liver, kidney, intestines, stomach and sternum were stained with hematoxylin and eosin and subjected to pathological analysis. Bone marrow smears were prepared for assessment of bone marrow cellularity. Liver function was evaluated by measuring alanine aminotransferase-(ALT) and aspartate aminotransferase (AST) activities in plasma. Kidney function was evaluated by measuring blood urea nitrogen in plasma and γ-glutamyltransferase activity and glucose levels in urine.

HS 578T = settings: 48 h; for CC50: read-out: LC50
U251 [7] = settings: for CC50: read-out: LC50
HCT-15 = settings: for CC50: read-out: LC50
[8] = read-out: LC50 (the source's name)
[9] = Homo sapiens, 48 h, read-out: LC50

SMILES: Sc1ncnc2nc[nH]c12 [6-MP, 6-mercaptopurine]
- GI50 (SF-539): 2.38 µM
- TGI (SF-539): >100 µM
- CC50 (SF-539; [8]): > 100 µM
- TGI (HCT-116): >100 µM
- CC50 (HCT-116; [8]): > 100 µM
- GI50 (NCI-H460): 5.6 µM
- TGI (NCI-H460): >100 µM
- CC50 (NCI-H460; [8]): > 100 µM
- GI50 (UACC-62 [1]): 1.63 µM
- TGI (UACC-62 [1]): >100 µM
- CC50 (UACC-62 [1]; [8]): > 100 µM
- GI50 (UACC-257 [2]): 14.2 µM
- TGI (UACC-257 [2]): >100 µM
- CC50 (UACC-257 [2]; [8]): > 100 µM
- GI50 (SNB-19): > 100 µM
- TGI (SNB-19): >100 µM
- CC50 (SNB-19; [8]): > 100 µM
- GI50 (NCI-H522): 1.67 µM
- TGI (NCI-H522): >100 µM
- CC50 (NCI-H522; [8]): > 100 µM
- GI50 (U251 [3]): 11.8 µM
- TGI (U251 [3]): >100 µM
- CC50 (U251 [3]; [8]): > 100 µM
- GI50 (M14): 0.67 µM
- TGI (M14): >100 µM
- CC50 (M14; [8]): > 100 µM
- CC50 (LOX IMVI; [8]): > 100 µM
- GI50 (LOX IMVI): 0.35 µM
- TGI (LOX IMVI): >100 µM

SMILES: CC(=O)C=CSc1ncnc2nc[nH]c12 [cis-AVTP, 6-(2-acetylvinylthio) purine]
- TGI (HT29; HT29, Colon, 48 h): 2.85 µM
- GI50 (HT29; Homo sapiens, HT-29, 48 h): 0.73 µM
- CC50 (HT29; Homo sapiens, HT-29, 48 h): 9.23 µM
- TGI (NCI/ADR-RES; Breast, 48 h): 2.79 µM
- GI50 (NCI/ADR-RES; Homo sapiens, 48 h): 0.51 µM
- CC50 (NCI/ADR-RES; [9]): > 100 µM
- GI50 (UACC-257 [4]; Homo sapiens, UACC-257, 48 h): 2.4 µM
- CC50 (UACC-257 [4]; Homo sapiens, UACC-257, 48 h): > 100 µM
- TGI (UACC-257 [4]; UACC-257, Melanoma, 48 h): 27.4 µM
- GI50 (SR; Homo sapiens, 48 h): 0.17 µM
- CC50 (SR; [9]): > 100 µM
- TGI (SR; Leukemia, 48 h): >100 µM
- GI50 (UO-31; Homo sapiens, UO-31, 48 h): 0.6 µM
- CC50 (UO-31; Homo sapiens, UO-31, 48 h): 4.48 µM
- TGI (UO-31; UO-31, Renal, 48 h): 1.85 µM
- GI50 (UACC-62 [5]; Homo sapiens, UACC-62, 48 h): 0.23 µM
- CC50 (UACC-62 [5]; Homo sapiens, UACC-62, 48 h): 5.88 µM
- TGI (UACC-62 [5]; UACC-62, Melanoma, 48 h): 1.10 µM
- GI50 (MDA-MB-231/ATCC; Homo sapiens, MDA-MB-231, 48 h): 1.27 µM
- CC50 (MDA-MB-231/ATCC; Homo sapiens, MDA-MB-231, 48 h): > 100 µM
- TGI (MDA-MB-231/ATCC; MDA-MB-231/ATCC, Breast, 48 h): 4.56 µM
- TGI (MDA-N): 4.48 µM
- GI50 (MDA-N; Homo sapiens): 0.55 µM
- CC50 (MDA-N; Homo sapiens, read-out: LC50 (the source's name)): > 100 µM
- TGI (COLO 205; COLO 205, Colon, 48 h): 1.70 µM
- GI50 (COLO 205; Homo sapiens, COLO 205, 48 h): 0.46 µM
- CC50 (COLO 205; Homo sapiens, COLO 205, 48 h): 4.74 µM
- GI50 (SW-620; Homo sapiens, SW-620, 48 h): 1.52 µM
- CC50 (SW-620; Homo sapiens, SW-620, 48 h): > 100 µM
- TGI (SW-620; SW-620, Colon, 48 h): >100 µM
- crypt epithelial apoptosis, large intestines [6]: no increase
- crypt epithelial cell apoptosis, small intestines [6]: increased slightly
- TGI (HS 578T; HS 578T, Breast): 8.79 µM
- GI50 (HS 578T; Homo sapiens, Hs-578T): 0.46 µM
- CC50 (HS 578T; Homo sapiens, Hs-578T): > 100 µM
- GI50 (U251 [7]; Homo sapiens, U-251, 48 h): 2.74 µM
- CC50 (U251 [7]; Homo sapiens, U-251, 48 h): 56.3 µM
- TGI (U251 [7]; U251, CNS, 48 h): 10.2 µM
- TGI (HCT-15; HCT-15, Colon, 48 h): 5.98 µM
- GI50 (HCT-15; Homo sapiens, HCT-15, 48 h): 1.88 µM
- CC50 (HCT-15; Homo sapiens, HCT-15, 48 h): 41.3 µM

SMILES: CC(=O)C=CSc1nc(N)nc2nc[nH]c12 [trans-AVTG, 6-(2-acetylvinylthio) guanine]
- GI50 (HT29; HT29, Colon, 48 h): 1.06 µM
- TGI (HT29; HT29, Colon, 48 h): 12.5 µM
- CC50 (HT29; HT29, Colon, 48 h): 60.4 µM
- GI50 (NCI/ADR-RES; Breast, 48 h): 0.35 µM
- TGI (NCI/ADR-RES; Breast, 48 h): 7.40 µM
- CC50 (NCI/ADR-RES; read-out: LC50, Breast, 48 h): > 100 µM
- GI50 (UACC-257 [4]; UACC-257, Melanoma, 48 h): 11.6 µM
- TGI (UACC-257 [4]; UACC-257, Melanoma, 48 h): >100 µM
- CC50 (UACC-257 [4]; UACC-257, Melanoma, 48 h): > 100 µM
- GI50 (SR; Leukemia, 48 h): 0.09 µM
- TGI (SR; Leukemia, 48 h): 10.2 µM
- CC50 (SR; read-out: LC50, Leukemia, 48 h): > 100 µM
- GI50 (UO-31; UO-31, Renal, 48 h): 0.62 µM
- TGI (UO-31; UO-31, Renal, 48 h): 11.9 µM
- CC50 (UO-31; UO-31, Renal, 48 h): 39.1 µM
- GI50 (UACC-62 [5]; UACC-62, Melanoma, 48 h): 0.28 µM
- TGI (UACC-62 [5]; UACC-62, Melanoma, 48 h): 0.93 µM
- CC50 (UACC-62 [5]; UACC-62, Melanoma, 48 h): 24.9 µM
- GI50 (MDA-MB-231/ATCC; MDA-MB-231/ATCC, Breast, 48 h): 0.89 µM
- TGI (MDA-MB-231/ATCC; MDA-MB-231/ATCC, Breast, 48 h): 23.6 µM
- CC50 (MDA-MB-231/ATCC; MDA-MB-231/ATCC, Breast, 48 h): > 100 µM
- GI50 (MDA-N): 1.28 µM
- TGI (MDA-N): 10.3 µM
- GI50 (COLO 205; COLO 205, Colon, 48 h): 1.87 µM
- TGI (COLO 205; COLO 205, Colon, 48 h): 3.98 µM
- CC50 (COLO 205; COLO 205, Colon, 48 h): 8.43 µM
- GI50 (SW-620; SW-620, Colon, 48 h): 1.13 µM
- TGI (SW-620; SW-620, Colon, 48 h): 6.50 µM
- CC50 (SW-620; SW-620, Colon, 48 h): > 100 µM
- GI50 (HS 578T; HS 578T, Breast): 1.78 µM
- TGI (HS 578T; HS 578T, Breast): 26.9 µM
- CC50 (HS 578T; HS 578T, Breast): > 100 µM
- GI50 (U251 [7]; U251, CNS, 48 h): 6.55 µM
- TGI (U251 [7]; U251, CNS, 48 h): 48.4 µM
- CC50 (U251 [7]; U251, CNS, 48 h): > 100 µM
- GI50 (HCT-15; HCT-15, Colon, 48 h): 1.73 µM
- TGI (HCT-15; HCT-15, Colon, 48 h): 19.4 µM
- CC50 (HCT-15; HCT-15, Colon, 48 h): > 100 µM
